Patent US10722523B2, “Chemoimmunotherapy for epithelial cancer” (THE REGENTS OF THE UNIVERSITY OF CALIFORNIA, priority 2015, dated 2020)

What was measured:
Myc-Cap (MC) cells = assay: Cell death and autophagy of Myc-Cap cells in vitro (Annexin V/PI, LC3A flow cytometry); assay type: cell-based, mouse; settings: 24 hrs, both at 20 µM
Text: All results are means±s.e.m.
For adoptive T cell transfer (ATCT) CD8^+ T cells were isolated from single cell suspensions, prepared from spleens and lymph nodes as described above, using CD8α-specific microbeads and MACS-columns (both Miltenyi Biotec GmbH, Bergisch Gladbach, Germany), and 5×10^6 CD8^+ T cells were transferred intraperitoneally (i.p.; FIG. 14a-j). For adoptive B cell transfer (ABCT), B cells (B220^+/CD19^+) were isolated from single cell suspensions prepared from spleens using CD19- and B220-specific microbeads and MACS-columns, and 5×10^6 B cells were transferred i.p. (FIG. 4g-h, FIG. 12n,o). For adoptive splenocytes transfer (ACT), single cell suspensions prepared from spleens were transferred i.p., with one total spleen injected per mouse. Labelling with 5-(and 6-) carboxyfluorescein diacetate succinimidyl ester (CFSE; Molecular Probes, Eugene, Oreg.) was done according to manufacturer's protocol. 5×10^6 CD8^+ T cells or 7×10^6 B cells were transferred (equal to one spleen per mouse; FIG. 5a-i and FIG. 14k-q). For combined adoptive B and T cell transfer (FIG. 5j-1, FIG. 14r-t), T cells were isolated from WT-FVB mice immunized with a Myc-Cap cell lysate as previously described^10. […] The extent of cell death was determined by flow cytometry, showing that more than 90% of cells were positive for Annexin V and PI. The dead cells were injected subcutaneously (s.c.) into WT-FVB mice. Seven days later, T cells were isolated from single cell suspensions of spleen and LN using a Pan T cell isolation Kit (Miltenyi Biotec). B cells were isolated from spleens of naïve FVB-WT or FVB-Tgfbr2^ΔB mice using a Pan B cell isolation kit (Miltenyi Biotec). MC-tumor bearing Rag1^−/− mice received 5×10^6 T cells with or without 5×10^6 B cells (98% pure) from WT or Tgfbr2^ΔB mice. Purity was analyzed on a Beckman Coulter Cyan ADP flow cytometer and was always >98%.

Myc-Cap (MC) tumors = assay: s.c. Myc-Cap (MC) prostate tumor model; assay type: in vivo, mouse; settings: 6 mg/kg
Text: All TRAMP mice, their derivatives and s.c. Myc-Cap transplantation were in the FVB genetic background and their basic immune parameters are shown in FIG. 15a-m. For s.c. TRAMP-C2 tumors, C57BL/6 mice were used. In both s.c. tumors, 2-3×10^6 cells/mouse were transplanted. More detailed information is as follows.
Mouse treatment studies were “matched design control trials.” Accordingly, mice were randomly chosen and paired based on sex (male), age (FIG. 6a) and tumor size. For transplanted tumor models, tumor size was defined by the median tumor volume (e.g. 400 mm^3, for late treatments, FIG. 6a,f). For TRAMP transgenic tumor models, treatment decisions were made based on age and mice were randomly chosen including a control littermate. An identification code was assigned to each tumor-bearing mouse both in the transplanted and transgenic models, and the investigators were blinded to treatment allocation at the time of tumor volume measurement, autopsy and analysis.
2×10^6 Myc-Cap^11 or 3×10^6 TRAMP-C2^12 cells (purchased from ATCC) were s.c. injected into the right flank. Tumors were measured every 2-3 days using a caliper. Tumor volumes were calculated as width^2×length/2.
B cells were depleted as previously described^13. Mice were weekly injected (i.p.) with a mixture of monoclonal antibodies, each at 150 μg/mouse: rat anti-mouse CD19 (clone 1D3), rat anti-mouse B220 (clone RA36B2), and mouse anti-mouse CD22 (clone CY34). After 48 hrs, the mice were injected with a secondary antibody (mouse anti-rat kappa chain; GeneTex) at 150 μg/mouse. In addition, mice were injected weekly, but not on the same day, with 250 μg/mouse rat anti-mouse CD20 (Genentech). Rat anti-mouse IgG2a and IgG1 were used as isotype controls. Mice were treated for 3 weeks in total (FIG. 1g; FIG. 7i-p). […]

`N.N.[Cl][Pt][Cl]` [cisplatin] was tested, and the “apoptotic cell death of MC cells (Annexin V, propidium iodide)” value (Myc-Cap (MC) cells) was “induced apoptotic cell death”, the “regression of MC tumors raised in Jh−/− mice” value (Myc-Cap (MC) tumors; LD, 3 weekly cycles, tumors 400 mm3) was “ineffective” and the “immunogenic activity of low dose treatment” value (Myc-Cap (MC) tumors; MC tumors) was “devoid of immunogenic activity”.
